# Laboratory results reported in paper PMC9505826, “A Peptide Inhibitor of the Human Cytomegalovirus Core Nuclear Egress Complex” (Pharmaceuticals, 2022).
# What was measured:
# HFF cells = assay: Neutral Red cytotoxicity assay; format: cell-based, human; conditions: peptides 0.008 µM to 100 µM, refreshed on day 5, read on day 7 of peptide treatment
# Procedure: HFF cells were cultivated in 96-well plate with a density of 1.35 × 10^4 cells per well and incubated at 37 °C for 24 h. The cultured HFF cells were treated with peptides, at concentrations ranging from 0.008 µM to 100 µM, and incubated at 37 °C. On day 5, peptides were refreshed in the culture media and incubation was continued until day 7. A sample without compound (DMSO) served as a negative control, and a sample with 1 µM staurosporine (STP) as a positive control. On day seven, neutral red solution (40 µg/mL, Sigma Aldrich, N2889) was added to cultivated cells and incubated at 37 °C for […], followed by addition of destaining solution (ethanol/water/acetic acid, 50:49:1). Fluorescence was read at excitation/emission at 560/630 nm to quantify the uptake of neutral red.
# HCMV AD169 = format: cell-based, human cytomegalovirus (HCMV strain AD169); conditions: for EC50: HFFs infected with HCMV AD169, MOI 0.1, peptides refreshed at 2, 5 and 7 d p.i., viral genome equivalents in supernatants at 8 d p.i. by qPCR, % of DMSO control, ± standard deviation, at least three independent experiments, read-out: EC50, antiviral effect; for effect on HCMV infection (in words): HFFs infected with HCMV AD169, qPCR of supernatants, concentrations up to 10 µM
# Procedure: Primary human foreskin fibroblasts (HFFs) were cultivated in minimal essential medium (MEM). Cell culture media were supplemented with 1× GlutaMAXTM (35050038, Thermo Fisher Scientific), […] gentamicin and 10% fetal bovine serum (FBS, F7524, Sigma Aldrich). All cells were incubated at 37 °C, 5% CO2 and 80% humidity. For infection with human cytomegalovirus (HCMV strain AD169), 2 × 10^5 HFFs were seeded in 12-well plates for 1 day (d) prior to infection at a multiplicity of infection (MOI) of 0.1. After 90 min of viral absorption, cells were incubated with peptides in the culture media media, which was supplemented with 2.5% FBS, 1× GlutaMAX^TM and 10 µg/mL gentamicin, at the indicated concentrations at 37 °C for 4–8 days. Viral supernatants were collected at 4, 6 and 8 days post-infection (d.p.i.).
# HFFs were seeded in 12-well plates, used for HCMV infection at a MOI of 0.1 and treated with the indicated concentrations of each peptide. […] The supernatants were centrifuged at 1500× g and digested with proteinase K at 56 °C for 1 h to release viral particles. The reactions were stopped at 95 °C for 5 min. The amount of extracellular viral genomic loads was assessed in […] of each sample by real-time PCR (TaqMan-PCR). Two primers, namely 5′CMV ([…]) and 3′CMV ([…]), which anneal to a sequence within the major immediate early gene region of HCMV, were obtained to amplify and quantify the viral genome. In addition, a FAM/TAMRA-labeled probe was used for detection. The viral load of a sample treated with DMSO only served as a negative control. HCMV genome equivalents from peptide-treated viral supernatants were calculated as % of the negative control.
# [1] = target: T1, HCMV pUL50–pUL53 interaction (Human cytomegalovirus, UniProt P16791); assay: pUL50-pUL53 inhibition assay (plate-based, anti-His-HRP detection); format: binding; conditions: peptide serial dilutions starting at 10 µM
# T1 construct: Recombinant pUL50 and pUL53 were produced and purified as previously described; made in house
# Procedure: Inhibition assay. Recombinant pUL50 and pUL53 were produced and purified as previously described. High binding Immulon microtiter plates were coated with 100 µL pUL53 (1 µg/mL) in sodium carbonate buffer pH 9.5, overnight at 4 °C. After blocking with 200 µL 1% BSA in 0.1 M phosphate buffer, pH 7.2, for two hours, plates were incubated with 50 µL peptide in serial dilutions, starting at 10 µM, together with 50 µL His-tagged pUL50 (0.78 µg/mL) for two and a half hours. His-tagged pUL50 was detected using anti-His-HRP (Merck, Darmstadt, Germany, 1:100,000). All proteins and antibodies were in 0.1 M phosphate buffer, pH 7.2, containing 0.1% BSA and 0.01% Tween 20. Plates were washed four times with 0.01% Tween 20 in 0.1 M phosphate buffer, pH 7.2, after each incubation step. Plates were developed with o-phenylenediamine (OPD) (1 mg/mL) in the presence of 0.03% H2O2 for approximately 5 min in the dark. After the reaction was stopped with 50 µL 2 M H2SO4, absorbance was read at 492 nm. IC50 values were determined from the % inhibition data using the program GraphPad. Inhibition was calculated according to the following formula:% Inhibition = [1 − (Asample − Ablank1)/(A100% − Ablank2)] × 100 in which “100%” is a sample without inhibitor, “blank1” is a sample without pUL53, and “blank2” is a sample without pUL53 and without inhibitor.
# T1 sequence (P16791 1-175): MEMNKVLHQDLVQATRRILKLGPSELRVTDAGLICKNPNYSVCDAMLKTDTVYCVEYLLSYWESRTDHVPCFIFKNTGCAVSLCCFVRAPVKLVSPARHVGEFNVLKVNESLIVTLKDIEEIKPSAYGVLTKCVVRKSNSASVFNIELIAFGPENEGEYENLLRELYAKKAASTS
SMILES,"CC50, cytotoxic effect (HFF cells) [µM]",EC50 (HCMV AD169) [µM],effect on HCMV infection (in words) (HCMV AD169),inhibitory effect on the pUL50-pUL53 interaction (in words) [1]
CC[C@H](C)[C@H](NC(=O)[C@H](C)NC(=O)[C@H](CCSC)NC(=O)[C@H](CCCCN)NC(=O)[C@H](CCSC)NC(=O)[C@H](CCSC)NC(=O)[C@H](CC(N)=O)NC(=O)[C@H](CC(C)C)NC(=O)[C@H](Cc1ccc(O)cc1)NC(=O)[C@H](CCCCN)NC(=O)[C@H](CC(C)C)NC(=O)[C@H](CCC(=O)O)NC(=O)[C@H](CC(C)C)NC(=O)[C@H](CCC(=O)O)NC(=O)[C@@H]1CCCN1C(=O)[C@H](Cc1c[nH]cn1)NC(=O)[C@H](CCC(=O)O)NC(=O)[C@H](CCCNC(=N)N)NC(=O)[C@H](Cc1ccccc1)NC(=O)[C@@H](NC(=O)[C@H](CC(=O)O)NC(=O)[C@H](Cc1c[nH]cn1)NC(=O)[C@H](CC(C)C)NC(=O)[C@H](CC(=O)O)NC(=O)[C@H](Cc1c[nH]cn1)NC(=O)[C@H](CC(C)C)NC(=O)[C@@H](NC(=O)[C@H](CC(C)C)NC(C)=O)[C@@H](C)O)[C@@H](C)CC)C(=O)N[C@H](C(N)=O)[C@@H](C)O [Hook peptide],>100,> 10,no significant effect,–
CC[C@H](C)[C@H](NC(=O)[C@H](C)NC(=O)[C@H](CCSC)NC(=O)[C@H](CCCCN)NC(=O)[C@H](CCSC)NC(=O)[C@H](CCSC)NC(=O)[C@H](CC(N)=O)NC(=O)[C@H](CC(C)C)NC(=O)[C@H](Cc1ccc(O)cc1)NC(=O)[C@H](CCCCN)NC(=O)[C@H](CC(C)C)NC(=O)[C@H](CCC(=O)O)NC(=O)[C@H](CC(C)C)NC(=O)[C@H](CCC(=O)O)NC(=O)[C@@H]1CCCN1C(=O)[C@H](Cc1c[nH]cn1)NC(=O)[C@H](CCC(=O)O)NC(=O)[C@H](CCCNC(=N)N)NC(=O)[C@H](Cc1ccccc1)NC(=O)[C@@H](NC(=O)[C@H](CC(=O)O)NC(=O)[C@H](Cc1c[nH]cn1)NC(=O)[C@H](CC(C)C)NC(=O)[C@H](CC(=O)O)NC(=O)[C@H](Cc1c[nH]cn1)NC(=O)[C@H](CC(C)C)NC(=O)[C@@H](NC(=O)[C@H](CC(C)C)NC(=O)COCCOCCNC(=O)[C@@H]1CCCN1C(=O)[C@@H]1CCCN1C(=O)[C@H](CCCNC(=N)N)NC(=O)[C@H](CCCNC(=N)N)NC(=O)[C@H](CCCNC(=N)N)NC(=O)[C@H](CCC(N)=O)NC(=O)[C@H](CCCNC(=N)N)NC(=O)[C@H](CCCNC(=N)N)NC(=O)[C@H](CCCCN)NC(=O)[C@H](CCCCN)NC(=O)[C@H](CCCNC(=N)N)NC(=O)CNC(=O)[C@H](Cc1ccc(O)cc1)NC(=O)COCCOCCNC(=O)[C@H](CCCNC(=N)N)NC(=O)[C@H](CCC(N)=O)NC(=O)[C@H](CCCNC(=N)N)NC(=O)[C@H](CCCNC(=N)N)NC(=O)[C@H](CCCCN)NC(=O)[C@H](CCCNC(=N)N)NC(=O)[C@H](CC(C)C)NC(=O)[C@H](CC(C)C)NC(=O)[C@H](CO)NC(=O)[C@H](CCCNC(=N)N)NC(C)=O)[C@@H](C)O)[C@@H](C)CC)C(=O)N[C@H](C(N)=O)[C@@H](C)O [NLS-CPP-Hook],44.2 ± 6.9,5.6 ± 0.78,–,–
CC(=O)N[C@@H](CCCNC(=N)N)C(=O)N[C@@H](CO)C(=O)N[C@@H](CC(C)C)C(=O)N[C@@H](CC(C)C)C(=O)N[C@@H](CCCNC(=N)N)C(=O)N[C@@H](CCCCN)C(=O)N[C@@H](CCCNC(=N)N)C(=O)N[C@@H](CCCNC(=N)N)C(=O)N[C@@H](CCC(N)=O)C(=O)N[C@@H](CCCNC(=N)N)C(=O)NCCOCCOCC(=O)N[C@@H](Cc1ccc(O)cc1)C(=O)NCC(=O)N[C@@H](CCCNC(=N)N)C(=O)N[C@@H](CCCCN)C(=O)N[C@@H](CCCCN)C(=O)N[C@@H](CCCNC(=N)N)C(=O)N[C@@H](CCCNC(=N)N)C(=O)N[C@@H](CCC(N)=O)C(=O)N[C@@H](CCCNC(=N)N)C(=O)N[C@@H](CCCNC(=N)N)C(=O)N[C@@H](CCCNC(=N)N)C(=O)N1CCC[C@H]1C(=O)N1CCC[C@H]1C(N)=O [NLS-CPP],–,–,no significant effect,completely inactive
